Reference: publication PMC7217877, “N-AS-triggered SPMs are direct regulators of microglia in a model of Alzheimer’s disease” (Nature Communications, 2020)
Several values for one entry are separate records, joined by “and”; a condition that tells them apart may be missing. Equal entries are not always repeated.

Legend:
Type in all cases: in vivo, mouse
APP/PS1 mice [1] = assay: cerebral amyloid angiopathy (CAA) quantification (Fig 6f); conditions: Cortex; APP/PS1 + N-AS; individual values
Procedure: Thioflavin S (Sigma-Aldrich) staining was carried out according to previously described procedures. We used 6E10 (mouse, 1:100, Signet, SIG39300), anti-20G10 (mouse, 1:1000, provided by D. R. Howlett, GlaxoSmithKline, Harlow, Essex, UK) for Aβ42, anti-G30 (rabbit, 1:1000, provided by D. R. Howlett) for Aβ40, SMA (mouse, 1:400, Sigma-Aldrich, A2547), AT8 (mouse, 1:500, Thermo Fisher Scientific, MN1020), Caspase-3 (mouse, 1:200, Novus Biologicals, NB100-56708), ac-S565 (rabbit, 1:100), COX2 (mouse, 1:250, Thermo Fisher Scientific, 35-8200), Iba1 (rabbit, 1:500, Wako, 019-19941 and goat, Abcam, ab5076), NeuN (mouse, 1:500, Millipore, MAB177), GFAP (rabbit, 1:500, Dako, N1506 and chicken, 1:500, Abcam, ab4674), and Lamp1 (mouse, 1:200, Abcam, ab24170). The sections were analyzed with a laser-scanning confocal microscope (FV3000; Olympus) or with a BX51 microscope (Olympus). MetaMorph software (Molecular Devices) was used to quantification. Three-dimensional reconstruction of microglia was recorded and analyzed using IMARIS software (Bitplane)[11]. For the analysis of age-dependent microglial COX2^+ CX3CR1^+ cells in WT and APP/PS1 mice, COX2 (rabbit, 1:100, Abcam, ab15191) and CX3CR1 (mouse, 1:100, BioLegend, 149008) antibody were used and the images were acquired on Alexa 488 and APC Channel with performed using Operetta CLS and Analysis Software 4.5 (Perkin-Elmer). […]

APP/PS1 mice [2] = assay: western blot of synaptophysin, MAP2, synapsin1, PSD95 in cortex (Supplementary Fig 7a-d); design: synaptophysin (western blot, cortex) / MAP2 (western blot, cortex) / synapsin1 (western blot, cortex): scale not given here
Procedure: Samples were lysed in RIPA buffer (Cell signaling Technologies), then subjected to SDS-PAGE and transferred to a nitrocellulose membrane. Membranes were blocked with 5% milk, incubated with primary antibody and then incubated with the appropriate horseradish peroxidase-conjugated secondary antibody. […] We performed densitometric quantification using the ImageJ software (National Institutes of Health). Images have been cropped for presentation.
(§1) Transgenic mouse lines over-expressing the hAPP695swe (APP) and presenilin-1M146V (PS1) mutations were originated from GlaxoSmithKline (Harlow, UK)[32] and maintained as described previously. We purchased 5×FAD mice from Jackson Labs (Stock number. 34840-JAX). Because APP/PS1 and 5xFAD mice show sex differences in disease progression, we used only male mice. To examine possible therapeutic effect of N-AS and aspirin in APP/PS1 mice, the N-AS (30 mg kg^−1, Sigma-Aldrich, 01912) was injected daily s.c. for 8 weeks to 7-months-old APP/PS1 mice until the age of 9 months, and aspirin (2 mg kg^−1, Sigma-Aldrich, A5376)[33] was administrated orally to 7-months-old APP/PS1 mice for 8 weeks. Also, to confirm possible therapeutic efficacy of N-AS in 5×FAD, the N-AS (30 mg kg^−1, Sigma-Aldrich, 01912) was injected daily s.c. for 4 weeks to 3-months-old 5×FAD mice until the age of 4 months. Block randomization method was used to allocate the animals to experimental groups. To eliminate the bias, we were blinded in experimental progress such as data collection and data analysis. Mice were housed at temperature of 22 °C and a 12 h day/12 h night cycle with free access to tap water and food pellets. All protocols were approved by the Kyungpook National University Institutional Animal Care and Use Committee.

APP/PS1 mice [3] = assay: fear conditioning (Supplementary Fig 7e); conditions: N-AS vs vehicle APP/PS1
Procedure: as §1, with “Also, to confirm possible therapeutic efficacy of N-AS in 5×FAD, the N-AS (30 mg kg^−1, Sigma-Aldrich, 01912) was injected daily s.c. for 4 weeks to 3-months-old 5×FAD mice until the age of 4 months.” left out, “Committee. […] Freezing was analyzed for 5 min. […] Overall activity in the box was measured, and the amount of time and distance traveled in the center arena was noted. […] The total number of transitions, latency to first enter the light chamber, distance traveled, and time spent in each chamber were recorded.” for “Committee.”

With `CCCCCCCCCCCCC/C=C/[C@@H](O)[C@H](CO)NC(C)=O` [N-AS, N-((2S,3R,E)-1,3-Dihydroxyoctadec-4-en-2-yl)acetamide] the “amyloid angiopathy (CAA) quantification” value (APP/PS1 mice [1]) was 0.11 and 0.15 and 0.12 and 0.1 and 0.17 and 0.13, the “synaptophysin (western blot, cortex)” value (APP/PS1 mice [2]; APP/PS1 + N-AS, sFig 7a (sheet untitled)) was 2.567 and 3.1595 and 2.9069 and 1.677 and 2.527 and 2.054 and the “MAP2 (western blot, cortex)” value (APP/PS1 mice [2]; APP/PS1 + N-AS, sFig 7b (sheet untitled)) was 0.7541 and 0.8231 and 0.7626 and 0.741 and 0.7343 and 0.8145. For the same compound, the “synapsin1 (western blot, cortex)” value (APP/PS1 mice [2]; APP/PS1 + N-AS, sFig 7c (sheet untitled)) was 0.7506 and 0.7227 and 0.685 and 0.6922 and 0.6413, the “PSD95 (western blot, cortex)” value (APP/PS1 mice [2]; APP/PS1 + N-AS, sFig 7d (sheet untitled)) was 0.7284 and 0.7208 and 0.6479 and 0.6548 and 0.6748 and 0.6067 and the “expression levels of synaptophysin, MAP2, synapsin1, PSD95” value (APP/PS1 mice [2]; N-AS vs APP/PS1) was “restored”. The “memory formation, fear conditioning” value (APP/PS1 mice [3]) was “largely protected from this defect”.
